Experiments:
[1] = system: patients with treatment-resistant major depressive disorder (TRD); test: Phase 1/2 clinical trial of inhaled 5-MeO-DMT in TRD: safety and tolerability; conditions: Part A
Procedure: This trial was designed in two parts. Part A was an open-label, single-arm, single-dose Phase 1 trial with two dose levels (12 mg (n=4) and 18 mg (n=4)). […] The primary endpoint of Part B was to assess the effects on the severity of depression, as assessed by the proportion of patients in remission on day seven after dosing, defined as a MADRS total score of less than or equal to 10.

[2] = system: Salmonella typhimurium TA98, TA100, TA1535 and TA1537; test: Bacterial mutation test, Salmonella typhimurium; assay type: cell-based; conditions: up to 5000 µg/plate; absence and presence of rat liver S-9
Excerpt: These conditions included treatments at concentrations up to […] (the maximum recommended concentration according to current regulatory guidelines), in the absence and in the presence of a rat liver metabolic activation system (S-9).

[3] = system: patients with treatment-resistant major depressive disorder (TRD); test: Phase 1/2 clinical trial of inhaled 5-MeO-DMT in TRD: MADRS; assay type: in vivo, human
Procedure: When assessing a clinical response at an early timepoint after drug administration (e.g. at 2 hours) based on endpoints which have been developed for a longer recall period (e.g. normally 7 days for the MADRS), a rational modification of such endpoint (e.g. changing the MADRS recall period to 2 hours and carrying forward the sleep item recorded at baseline before drug administration) may be applied. The same applies with respect to the BDRS (in particular the item sleep disturbance) and any other scale applied herein, unless a recall period is specifically indicated.
The Montgomery-Asberg Depression Rating Scale (MADRS) is a ten-item diagnostic questionnaire used to measure the severity of depressive episodes in patients with mood disorders (Montgomery, S. A., & Asberg, M. (1979). A new depression scale designed to be sensitive to change. The British Journal of Psychiatry 134, p.382). It was designed as an adjunct to the Hamilton Rating Scale for Depression (HAM-D), which would be more sensitive to the changes brought on by antidepressants and other forms of treatment. Higher MADRS score indicates more severe depression. The items considered are apparent sadness; reported sadness; inner tension; reduced sleep; reduced appetite; concentration difficulties; lassitude; inability to feel; pessimistic thoughts; and suicidal thoughts, and each item yields a score of 0 to 6. The overall score ranges from 0 to 60. Score ranges used herein for assessing the severity of depressive episodes in patients with bipolar disorder are 13-18 for “mildly ill”, 19-23 for “moderately ill”, 24-36 for “markedly ill”, 37-39 for “severely ill”, and 40 for “extremely ill” (Thase, 2021).
Patients were assigned to different groups.
This trial was designed in two parts.

[4] = system: patients with clinically diagnosed postpartum depression (PPD); test: Clinical trial in postpartum depression: safety and tolerability; assay type: in vivo, human; conditions: one PPD patient
Excerpt: The patient completed all planned visit days.

[5] = 12 mg n=4, 2 hours, baseline 13
[6] = 12 mg n=4, 2 hours, baseline 16

COc1ccc2[nH]cc(CCN(C)C)c2c1 [5-MeO-DMT]
Patients who experienced at least one ADR ([1]; 12 mg single dose): 3 of 4 | Patients who experienced at least one ADR ([1]; 18 mg single dose): 3 of 4 | Induction of mutation [2]: did not induce mutation | MADRS Suicidal Thoughts percentage improvement ([3]; 12 mg n=4, 2 hours, baseline 8): 63% | MADRS Suicidal Thoughts score (sum) ([3]; 12 mg n=4, 2 hours, baseline 8): 3 | MADRS Inner Tension percentage improvement [3, 5]: 85% | MADRS Inner Tension score (sum) [3, 5]: 2 | MADRS Concentration Difficulties percentage improvement [3, 6]: 56% | MADRS Concentration Difficulties score (sum) [3, 6]: 7 | MADRS Inability to Feel percentage improvement [3, 6]: 44% | MADRS Inability to Feel score (sum) [3, 6]: 9 | MADRS Lassitude percentage improvement [3, 6]: 38% | MADRS Lassitude score (sum) [3, 6]: 10 | MADRS Pessimistic Thoughts percentage improvement [3, 6]: 50% | MADRS Pessimistic Thoughts score (sum) [3, 6]: 8 | MADRS Suicidal Thoughts score (sum) ([3]; 12 mg n=4, Day 1, baseline 8): 5 | MADRS Reduced Sleep score (sum) ([3]; 12 mg n=4, Day 1, baseline 12): 10 | MADRS Inner Tension percentage improvement ([3]; 12 mg n=4, Day 1, baseline 13): 77% | MADRS Inner Tension score (sum) ([3]; 12 mg n=4, Day 1, baseline 13): 3 | MADRS Concentration Difficulties percentage improvement ([3]; 12 mg n=4, Day 1, baseline 16): 88% | MADRS Concentration Difficulties score (sum) ([3]; 12 mg n=4, Day 1, baseline 16): 2 | MADRS Inability to Feel score (sum) ([3]; 12 mg n=4, Day 1, baseline 16): 1 | MADRS Lassitude percentage improvement ([3]; 12 mg n=4, Day 1, baseline 16): 100% | MADRS Lassitude score (sum) ([3]; 12 mg n=4, Day 1, baseline 16): 0 | MADRS Pessimistic Thoughts percentage improvement ([3]; 12 mg n=4, Day 1, baseline 16): 56% | MADRS Pessimistic Thoughts score (sum) ([3]; 12 mg n=4, Day 1, baseline 16): 7 | MADRS Suicidal Thoughts score (sum) ([3]; 12 mg n=4, Day 7, baseline 8): 7 | MADRS Reduced Sleep score (sum) ([3]; 12 mg n=4, Day 7, baseline 12): 6 | MADRS Inner Tension percentage improvement ([3]; 12 mg n=4, Day 7, baseline 13): 62% | MADRS Inner Tension score (sum) ([3]; 12 mg n=4, Day 7, baseline 13): 5 | MADRS Concentration Difficulties percentage improvement ([3]; 12 mg n=4, Day 7, baseline 16): 81% | MADRS Concentration Difficulties score (sum) ([3]; 12 mg n=4, Day 7, baseline 16): 3 | MADRS Inability to Feel score (sum) ([3]; 12 mg n=4, Day 7, baseline 16): 1 | MADRS Lassitude percentage improvement ([3]; 12 mg n=4, Day 7, baseline 16): 81% | MADRS Lassitude score (sum) ([3]; 12 mg n=4, Day 7, baseline 16): 3 | MADRS Pessimistic Thoughts percentage improvement ([3]; 12 mg n=4, Day 7, baseline 16): 50% | MADRS Pessimistic Thoughts score (sum) ([3]; 12 mg n=4, Day 7, baseline 16): 8 | MADRS Suicidal Thoughts percentage improvement ([3]; IDR n=8, 2 hours, baseline 11): 73% | MADRS Suicidal Thoughts score (sum) ([3]; IDR n=8, 2 hours, baseline 11): 3 | MADRS Inner Tension percentage improvement ([3]; IDR n=8, 2 hours, baseline 26): 58% | MADRS Inner Tension score (sum) ([3]; IDR n=8, 2 hours, baseline 26): 11 | MADRS Lassitude percentage improvement ([3]; IDR n=8, 2 hours, baseline 27): 63% | MADRS Lassitude score (sum) ([3]; IDR n=8, 2 hours, baseline 27): 10 | MADRS Pessimistic Thoughts percentage improvement ([3]; IDR n=8, 2 hours, baseline 28): 75% | MADRS Pessimistic Thoughts score (sum) ([3]; IDR n=8, 2 hours, baseline 28): 7 | MADRS Concentration Difficulties percentage improvement ([3]; IDR n=8, 2 hours, baseline 30): 63% | MADRS Concentration Difficulties score (sum) ([3]; IDR n=8, 2 hours, baseline 30): 11 | MADRS Inability to Feel percentage improvement ([3]; IDR n=8, 2 hours, baseline 36): 67% | MADRS Inability to Feel score (sum) ([3]; IDR n=8, 2 hours, baseline 36): 12 | MADRS Suicidal Thoughts score (sum) ([3]; IDR n=8, Day 1, baseline 11): 1 | MADRS Reduced Sleep score (sum) ([3]; IDR n=8, Day 1, baseline 25): 12 | MADRS Inner Tension percentage improvement ([3]; IDR n=8, Day 1, baseline 26): 77% | MADRS Inner Tension score (sum) ([3]; IDR n=8, Day 1, baseline 26): 6 | MADRS Lassitude percentage improvement ([3]; IDR n=8, Day 1, baseline 27): 81% | MADRS Lassitude score (sum) ([3]; IDR n=8, Day 1, baseline 27): 5 | MADRS Pessimistic Thoughts percentage improvement ([3]; IDR n=8, Day 1, baseline 28): 86% | MADRS Pessimistic Thoughts score (sum) ([3]; IDR n=8, Day 1, baseline 28): 4 | MADRS Concentration Difficulties percentage improvement ([3]; IDR n=8, Day 1, baseline 30): 97% | MADRS Concentration Difficulties score (sum) ([3]; IDR n=8, Day 1, baseline 30): 1 | MADRS Inability to Feel score (sum) ([3]; IDR n=8, Day 1, baseline 36): 2 | MADRS Suicidal Thoughts score (sum) ([3]; IDR n=8, Day 7, baseline 11): 3 | MADRS Reduced Sleep score (sum) ([3]; IDR n=8, Day 7, baseline 25): 9 | MADRS Inner Tension percentage improvement ([3]; IDR n=8, Day 7, baseline 26): 54% | MADRS Inner Tension score (sum) ([3]; IDR n=8, Day 7, baseline 26): 12 | MADRS Lassitude percentage improvement ([3]; IDR n=8, Day 7, baseline 27): 89% | MADRS Lassitude score (sum) ([3]; IDR n=8, Day 7, baseline 27): 3 | MADRS Pessimistic Thoughts percentage improvement ([3]; IDR n=8, Day 7, baseline 28): 89% | MADRS Pessimistic Thoughts score (sum) ([3]; IDR n=8, Day 7, baseline 28): 3 | MADRS Concentration Difficulties percentage improvement ([3]; IDR n=8, Day 7, baseline 30): 70% | MADRS Concentration Difficulties score (sum) ([3]; IDR n=8, Day 7, baseline 30): 9 | MADRS Inability to Feel score (sum) ([3]; IDR n=8, Day 7, baseline 36): 6 | Tolerability of inhalation procedure [4]: well tolerated with no inhalation-related adverse events | Adverse events (cramping left abdominal pain and headache) ([4]; Day 0): mild, short-lasting and resolved spontaneously | ECG, safety laboratory analyses, CADSS ([4]; ECG 3 hours, laboratory 7 days, CADSS 3 hours, 1 day, 7 days): unremarkable

— US20250213532A1, “5-METHOXY-N,N-[…][…] THE TREATMENT OF BIPOLAR DISORDER” (GH RESEARCH IRELAND LIMITED, priority 2022, published 2025)
